Results taken from ChEMBL document CHEMBL1129369, “Forskolin carbamates: binding and activation studies with type I adenylyl cyclase” (J Med Chem, 1996).

Legend:
Adenylate cyclase type 1 [1] = target: T1, Adenylate cyclase type 1 (Homo sapiens, UniProt Q08828); test: (§1) Inhibition of [125 I]6-IHPP-forskolin binding to Adenylate cyclase 1; assay type: functional
Target sequence in this assay (Q08828 whole entry): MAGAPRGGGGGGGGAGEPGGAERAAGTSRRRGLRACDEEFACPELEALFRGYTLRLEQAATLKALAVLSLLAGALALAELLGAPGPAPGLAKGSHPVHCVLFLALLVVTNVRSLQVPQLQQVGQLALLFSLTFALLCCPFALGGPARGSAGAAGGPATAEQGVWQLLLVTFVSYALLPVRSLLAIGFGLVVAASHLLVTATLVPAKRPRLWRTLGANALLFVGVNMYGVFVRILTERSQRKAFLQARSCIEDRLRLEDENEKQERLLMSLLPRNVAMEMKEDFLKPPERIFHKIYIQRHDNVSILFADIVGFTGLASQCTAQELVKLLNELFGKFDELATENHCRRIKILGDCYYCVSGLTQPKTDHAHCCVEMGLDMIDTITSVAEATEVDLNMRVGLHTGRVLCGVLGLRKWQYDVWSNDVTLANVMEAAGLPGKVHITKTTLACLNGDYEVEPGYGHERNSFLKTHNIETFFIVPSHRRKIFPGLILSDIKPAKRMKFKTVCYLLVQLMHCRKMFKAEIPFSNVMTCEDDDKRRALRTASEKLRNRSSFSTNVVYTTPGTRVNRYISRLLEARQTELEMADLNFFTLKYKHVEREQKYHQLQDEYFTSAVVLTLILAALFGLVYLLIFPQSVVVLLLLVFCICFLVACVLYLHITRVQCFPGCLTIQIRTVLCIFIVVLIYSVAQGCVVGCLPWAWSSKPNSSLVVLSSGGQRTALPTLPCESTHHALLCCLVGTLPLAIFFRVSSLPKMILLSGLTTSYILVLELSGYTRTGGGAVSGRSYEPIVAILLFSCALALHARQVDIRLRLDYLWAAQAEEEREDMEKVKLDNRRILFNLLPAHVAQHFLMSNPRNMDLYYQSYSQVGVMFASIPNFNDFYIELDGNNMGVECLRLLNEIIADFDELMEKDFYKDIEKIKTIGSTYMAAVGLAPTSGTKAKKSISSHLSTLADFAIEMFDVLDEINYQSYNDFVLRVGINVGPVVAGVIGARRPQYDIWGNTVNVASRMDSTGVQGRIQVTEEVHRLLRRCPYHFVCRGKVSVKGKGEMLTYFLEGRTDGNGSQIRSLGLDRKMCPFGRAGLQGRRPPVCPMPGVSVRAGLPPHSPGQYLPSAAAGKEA

Adenylate cyclase type 1 [2] = target: T1, Adenylate cyclase type 1; test: Ability to activate the conversion of [32P] ATP to [32P]-cyclic AMP mediated by adenylate cyclase 1; assay type: functional
Target sequence in this assay (Q08828 whole entry): as above

Adenylate cyclase type 1 [3] = target: T1, Adenylate cyclase type 1; test: Conversion of [32P] ATP to [32P]-cyclic AMP mediated by adenylate cyclase 1; assay type: functional; details: read-out: EC50
Target sequence in this assay (Q08828 whole entry): as above

Adenylate cyclase type 1 [4] = target: T1, Adenylate cyclase type 1; test: Maximum stimulation activity measured with 100 uM forskolin mediated by adenylate cyclase 1; assay type: functional
Target sequence in this assay (Q08828 whole entry, looked up): as the sequence (Q08828 whole entry) above

Adenylate cyclase type 1 [5] = target: T1, Adenylate cyclase type 1; test: (§2) Inhibition of [125 I]6-IHPP-forskolin binding to adenylate cyclase 1
Target sequence in this assay (Q08828 whole entry): as above

Adenylate cyclase type 1 [6] = target: T1, Adenylate cyclase type 1; test: as §2; remark: listed apart in the source
Target sequence in this assay (Q08828 whole entry): as above

Adenylate cyclase type 1 [7] = target: T1, Adenylate cyclase type 1; test: Maximum stimulation activity measured with 100 uM forskolin mediated by Adenylate cyclase 1; assay type: functional
Target sequence in this assay (Q08828 whole entry, looked up): as the sequence (Q08828 whole entry) above

Adenylate cyclase type 2 = Adenylate cyclase type 2 (Rattus norvegicus, UniProt P26769); test: Ability to activate the conversion of [32P] ATP to [32P]-cyclic AMP; assay type: functional
Adenylate cyclase type 1 [8] = target: T1, Adenylate cyclase type 1; test: as §1
Target sequence in this assay (Q08828 whole entry): as above

Chain of Adenylate cyclase type 2 (P26769 whole entry): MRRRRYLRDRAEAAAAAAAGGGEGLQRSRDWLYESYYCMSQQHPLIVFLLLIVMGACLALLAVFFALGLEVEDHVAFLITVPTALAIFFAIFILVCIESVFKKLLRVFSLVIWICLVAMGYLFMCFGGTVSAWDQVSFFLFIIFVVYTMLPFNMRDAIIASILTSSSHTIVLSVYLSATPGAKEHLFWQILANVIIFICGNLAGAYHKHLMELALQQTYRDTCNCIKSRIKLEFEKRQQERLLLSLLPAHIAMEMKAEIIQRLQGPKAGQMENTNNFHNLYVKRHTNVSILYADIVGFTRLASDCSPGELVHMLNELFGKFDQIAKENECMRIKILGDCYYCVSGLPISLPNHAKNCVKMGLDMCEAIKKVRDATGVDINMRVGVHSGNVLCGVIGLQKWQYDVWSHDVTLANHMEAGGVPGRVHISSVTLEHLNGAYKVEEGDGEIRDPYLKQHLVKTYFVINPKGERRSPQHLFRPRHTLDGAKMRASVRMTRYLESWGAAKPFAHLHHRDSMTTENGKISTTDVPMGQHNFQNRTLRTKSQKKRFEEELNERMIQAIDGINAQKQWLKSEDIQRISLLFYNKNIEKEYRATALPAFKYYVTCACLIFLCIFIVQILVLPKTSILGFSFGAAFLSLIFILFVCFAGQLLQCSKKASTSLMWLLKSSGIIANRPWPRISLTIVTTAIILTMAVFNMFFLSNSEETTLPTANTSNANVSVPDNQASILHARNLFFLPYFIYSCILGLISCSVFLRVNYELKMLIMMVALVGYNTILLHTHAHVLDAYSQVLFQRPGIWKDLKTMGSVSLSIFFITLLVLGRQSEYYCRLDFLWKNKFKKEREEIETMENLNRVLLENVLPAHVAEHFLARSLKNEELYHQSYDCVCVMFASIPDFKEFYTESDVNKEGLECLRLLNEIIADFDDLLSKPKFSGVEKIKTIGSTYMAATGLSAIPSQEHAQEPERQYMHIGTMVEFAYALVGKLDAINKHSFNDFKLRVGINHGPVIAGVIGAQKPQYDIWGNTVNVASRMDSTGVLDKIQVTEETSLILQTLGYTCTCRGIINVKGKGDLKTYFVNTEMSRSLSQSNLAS

In the case of C=C[C@@]1(C)CC(=O)[C@]2(O)[C@@]3(C)[C@@H](O)CCC(C)(C)[C@@H]3[C@H](OC(=O)NCCC)[C@H](O)[C@@]2(C)O1, the IC50 (Adenylate cyclase type 1 [1]) is reported as > 150 nM, the EC50 (Adenylate cyclase type 1 [2]) is reported as > 2000 nM and the EC50 (Adenylate cyclase type 1 [3]) is reported as 4900 nM. It also gave an Activity (Adenylate cyclase type 1 [4]) of 61% and an IC50 (Adenylate cyclase type 1 [5]) of 555 nM.

For C=C[C@@]1(C)CC(=O)[C@]2(O)[C@@]3(C)[C@@H](O)CCC(C)(C)[C@@H]3[C@H](O)[C@H](OC(=O)NCCN(C)C)[C@@]2(C)O1, the EC50 (Adenylate cyclase type 1 [2]) was > 2000 nM, the EC50 (Adenylate cyclase type 1 [3]) was 2200 nM and the IC50 (Adenylate cyclase type 1 [6]) was > 150 nM. The IC50 (Adenylate cyclase type 1 [5]) was 228 nM and the Activity (Adenylate cyclase type 1 [7]) was 89%.

C=C[C@@]1(C)CC(=O)[C@]2(O)[C@@]3(C)[C@@H](O)CCC(C)(C)[C@@H]3[C@H](O)[C@H](OC(=O)NCCc3ccc(N)cc3)[C@@]2(C)O1 was tested, and the EC50 (Adenylate cyclase type 1 [2]) was < 2000 nM, the EC50 (Adenylate cyclase type 1 [3]) was 1100 nM and the IC50 (Adenylate cyclase type 1 [6]) was < 150 nM. For the same compound, the IC50 (Adenylate cyclase type 1 [5]) was 64 nM and the Activity (Adenylate cyclase type 1 [7]) was 68%.

With C=C[C@@]1(C)CC(=O)[C@]2(O)[C@@]3(C)[C@@H](O)CCC(C)(C)[C@@H]3[C@H](O)[C@H](OC(C)=O)[C@@]2(C)O1 [COLFORSIN] the EC50 (Adenylate cyclase type 1 [3]) was 500 nM, the Activity (Adenylate cyclase type 1 [4]) was 100% and the EC50 (Adenylate cyclase type 2) was < 2000 nM. The IC50 (Adenylate cyclase type 1 [5]) was 41 nM and the IC50 (Adenylate cyclase type 1 [8]) was < 150 nM.

For C=C[C@@]1(C)CC(=O)[C@]2(O)[C@@]3(C)[C@@H](O)CCC(C)(C)[C@@H]3[C@H](OC(=O)NCCOC)[C@H](O)[C@@]2(C)O1, the EC50 (Adenylate cyclase type 1 [2]) was > 2000 nM, the EC50 (Adenylate cyclase type 1 [3]) was 3100 nM and the IC50 (Adenylate cyclase type 1 [6]) was > 150 nM. For the same compound, the IC50 (Adenylate cyclase type 1 [5]) was 318 nM and the Activity (Adenylate cyclase type 1 [7]) was 84%.

With C=C[C@@]1(C)CC(=O)[C@]2(O)[C@@]3(C)[C@@H](O)CCC(C)(C)[C@@H]3[C@H](O)[C@H](OC(=O)NCCO)[C@@]2(C)O1 the EC50 (Adenylate cyclase type 1 [2]) was < 2000 nM, the EC50 (Adenylate cyclase type 1 [3]) was 1400 nM and the IC50 (Adenylate cyclase type 1 [6]) was < 150 nM. The IC50 (Adenylate cyclase type 1 [5]) was 43 nM and the Activity (Adenylate cyclase type 1 [7]) was 119%.

In the case of C=C[C@@]1(C)CC(=O)[C@]2(O)[C@@]3(C)[C@@H](O)CCC(C)(C)[C@@H]3[C@H](O)[C@H](OC(=O)NCCN3CCCCC3)[C@@]2(C)O1, the EC50 (Adenylate cyclase type 1 [2]) is reported as < 2000 nM, the EC50 (Adenylate cyclase type 1 [3]) is reported as 1200 nM and the IC50 (Adenylate cyclase type 1 [6]) is reported as > 150 nM. The IC50 (Adenylate cyclase type 1 [5]) was 184 nM and the Activity (Adenylate cyclase type 1 [7]) was 81%.

C=C[C@@]1(C)CC(=O)[C@]2(O)[C@@]3(C)[C@@H](O)CCC(C)(C)[C@@H]3[C@H](OC(=O)NCCN(C)C)[C@H](OC(C)=O)[C@@]2(C)O1 was tested, and the EC50 (Adenylate cyclase type 1 [2]) was < 2000 nM, the EC50 (Adenylate cyclase type 1 [3]) was 2000 nM and the Activity (Adenylate cyclase type 1 [4]) was 100%. The IC50 (Adenylate cyclase type 1 [6]) was < 150 nM and the IC50 (Adenylate cyclase type 1 [5]) was 73 nM.

With C=C[C@@]1(C)CC(=O)[C@]2(O)[C@@]3(C)[C@@H](O)CCC(C)(C)[C@@H]3[C@H](O)[C@H](OC(=O)NCCc3ccc(O)cc3)[C@@]2(C)O1 the EC50 (Adenylate cyclase type 1 [2]) was < 2000 nM, the EC50 (Adenylate cyclase type 1 [3]) was 1400 nM and the Activity (Adenylate cyclase type 1 [4]) was 45%. The IC50 (Adenylate cyclase type 1 [6]) was < 150 nM and the IC50 (Adenylate cyclase type 1 [5]) was 95 nM.
